Assay results published in ChEMBL document CHEMBL5550106, “Recent advances in the exploration of oxazolidinone scaffolds from compound development to antibacterial agents and other bioactivities” (Eur J Med Chem, 2024).
Converted amounts (≈) assume the structure as drawn.

Tested on: Mycobacterium tuberculosis
Assay: Antitubercular activity against Multi-drug resistant Mycobacterium tuberculosis assessed as inhibition of bacterial growth incubated for 14 days by microplate alamar blue assay
Type: functional
Settings: 336 h, time 14 day

Q: Which MIC90 does the source give for `CN1CCN(c2ccc(N3C[C@H](CO)OC3=O)cc2F)C=N1` [DELPAZOLID] here?
A: 0.5 µg/mL (≈ 1.62 µM)
